≈ marks a conversion by molar mass, not a printed value.
Test: Solubility in water according to the Higuchi-Connor method
Assay type: physicochemical
Details: thermodynamic from solid; excess amount added to 10 ml of water, shaken on mechanical shaker for 48 hours, filtered, dissolved drug content; read-out: Indomethacin Solubility in water
Description: The solubility of the drug (indomethacin) and solid dispersions of the drug according to the invention was examined in water according to the Higuchi-Connor method, see "Advances in Analytical Chemical Chemistry and Instrumentation" Vol. 4, New York, Wiley-Interscience 1965, page 117-212. An excess amount of drug, comparative solid dispersions and inventive solid dispersions was added to 10 ml of water, separately. The dispersions were shaken on mechanical shaker for 48 hours. Afterwards, the samples were withdrawn, filtered, diluted and analyzed to calculate the dissolved drug content.

solubility at 48 h: 152 µg/mL (≈ 425 µM)
SMILES: COc1ccc2c(c1)c(CC(=O)O)c(C)n2C(=O)c1ccc(Cl)cc1 [Indomethacin]
